This is an account of results in patent EP3178809A1, “HYBRID MOLECULE WITH STRUCTURAL AND ACTIVITY ELEMENTS OF RESVERATROL AND DIALLYL SULFIDE” (Albert-Ludwigs-Universität Freiburg, priority 2015, dated 2017).

Several values for one entry are separate records, joined by “and”; a condition that tells them apart may be missing. Identical values can stand only once.

In one series the target is T1, NOX1 (Homo sapiens, UniProt Q9Y5S8).
T1 construct: endogenous in cells
T1 sequence (Q9Y5S8 1-564): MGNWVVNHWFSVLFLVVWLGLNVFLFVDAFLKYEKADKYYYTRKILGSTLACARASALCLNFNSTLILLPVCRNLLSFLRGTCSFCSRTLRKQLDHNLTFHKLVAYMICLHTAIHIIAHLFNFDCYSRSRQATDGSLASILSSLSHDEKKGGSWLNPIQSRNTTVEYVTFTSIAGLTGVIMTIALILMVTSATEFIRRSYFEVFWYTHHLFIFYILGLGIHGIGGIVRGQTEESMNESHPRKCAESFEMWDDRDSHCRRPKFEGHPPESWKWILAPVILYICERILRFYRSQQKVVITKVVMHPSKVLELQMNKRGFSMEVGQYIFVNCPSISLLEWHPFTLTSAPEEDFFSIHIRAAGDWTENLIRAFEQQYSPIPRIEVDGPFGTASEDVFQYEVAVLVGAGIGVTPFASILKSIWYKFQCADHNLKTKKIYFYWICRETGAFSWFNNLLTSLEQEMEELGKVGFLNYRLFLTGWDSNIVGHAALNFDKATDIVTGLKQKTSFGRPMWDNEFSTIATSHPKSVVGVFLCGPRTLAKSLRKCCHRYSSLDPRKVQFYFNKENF
T1 sequence (P13498 1-195 partner): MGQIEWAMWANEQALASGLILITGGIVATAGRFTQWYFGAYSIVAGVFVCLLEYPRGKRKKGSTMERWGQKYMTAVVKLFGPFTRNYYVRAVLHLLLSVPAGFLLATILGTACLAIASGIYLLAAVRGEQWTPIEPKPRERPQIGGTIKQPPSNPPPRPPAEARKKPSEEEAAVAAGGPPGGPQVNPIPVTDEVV
In words: Parallel control measurement of NOX1 activity / extracellular superoxide anion production. Type of series: cell-based. On the procedure: Inkubationsbedingungen wie in Figur 11. Zusätzlich wurden 5 µM AEBSF oder 100 µM AEBSF zugegeben. 5 µM AEBSF führen zu einer Hemmung um nur 20 % von NOX1, während 100 µM mehr als 90 % hemmen, wie parallel durchgeführte Kontrollmessungen ergeben haben. Die geringfügige Hemmung durch 5 µM AEBSF reicht bereits aus, den Synergieeffekt aufzuheben und die Apoptoseinduktion auf das Niveau der alleinige Gabe von DADS zu drücken. Dies zeigt, dass tatsächlich die NOX-stimulierende Wirkung von Resveratrol für den Synergieeffekt notwendig war.
(§1) Die Messung der extrazellulären Superoxidanionenkonzentration von Tumorzellen sowie die Bestrahlungstechnik mit Niedrigdosis-Gammastrahlung wird in der Arbeit Temme and Bauer, 2013 beschrieben. Die Hemmung der NOD wird bei Scheit and Bauer, 2015, beschrieben. Viele Versuchsergebnisse wurden in den Figuren dargestellt.
Um zu klären, ob der durch das Hybridmolekül gebündelte Synergieeffekt tatsächlich durch die NOX-stimulierende Wirkung des von Resveratrol abgeleiteten Anteils mitgetragen wird, wurde die Wirkung des Hybridmoleküls in Gegenwart von 5 µM AEBSF untersucht. Für diese Hemmstoffkonzentration wurde in Parallelexperimenten ermittelt, dass sie eine Hemmung der extrazellulären Superoxidanionenproduktion um ca. 20 % zur Folge hat. […]

Series [1] concerns humane Magenkarzinomzellen MKN-45. Kind of series: Apoptosis induction in tumour cells (morphological criteria, duplicate assays). Type of series: cell-based, human. The conditions noted are these: for Konzentration, bei der der maximale Apoptose-auslösende Effekt erzielt wird: MKN-45, 3,5 Stunden Inkubation; for Apoptoseinduktion in Tumorzellen: MKN-45, 3 Stunden, 37 °C, 5 % CO2; for Konzentration für optimale Wirkung: induction of apoptosis in tumour cells, single agents, combinations with Resveratrol, or hybrid. The method, then:
Nach 3 Stunden bei 37 ° C, 5 % CO2 wurden die Prozentsätze apoptotischer Zellen bestimmt. […] Nach 3 Stunden bei 37 ° C, 5 % CO2 wurden die Prozentsätze apoptotischer Zellen bestimmt.
Die Daten basieren allesamt auf der quantitativen Bestimmung der Apoptose mittels der klassischen morphologischen Kriterien Kernkondensation, Kernfragmentation und Membrane Blebbing nach definierten Inkubationszeiten bei 37°C.
Die Ansätze erfolgten bei einer Zelldichte von 125 000 Zellen/ml in 96-Loch-Platten mit einem Reaktionsvolumen von 100 µl. Alle Ansätze wurden als Doppelansätze geführt und pro Messpunkt wurden mindestens 200 Zellen morphologisch bewertet. Eine detaillierte Aufstellung der verwendeten Medien, Inhibitoren, Zellen ist in den Arbeiten Scheit and Bauer, 2015; Bauer und Zarkovic, 2014; Bauer et al., 2014; Bauer, 2015 beschrieben.
Um zu klären, ob das Hybridmolekül aus Struktur- und Wirkungselementen von Resveratrol und Diallyldisulfid in der Lage ist, Apoptose in Tumorzellen zu induzieren, und dabei zu prüfen, ob sich durch die Kombination der Einzelfunktionen in einem Molekül der Synergieeffekt bündeln ließ, wurden steigende Konzentrationen des Hybridmoleküls zu Magenkarzinomzellen der Linie MKN-45 gegeben. Die als Parallelansätze geführten Ansätze wurden sowohl ohne als auch in Anwesenheit von 2 mM des Singulettsauerstofffängers Histidin inkubiert, um zu prüfen, ob der durch das Hybridmolekül ausgelöste Effekt durch Singulettsauerstoff vermittelt wird. Zum Vergleich wurde das gleiche Experiment mit steigenden Konzentrationen DADS durchgeführt, ebenfalls mit und ohne Histidinzugabe. Nach 3,5 Stunden Inkubation wurde der Prozentsatz apoptotischer Zellen bestimmt.

For series [2], the system named is nichtmaligne, diploide humane Fibroblasten Alpha-1. Kind of series: Apoptosis induction in non-malignant cells (morphological criteria). Type of series: cell-based, human. The conditions noted are these: Alpha-1 fibroblasts, 3 Stunden, 37 °C, 5 % CO2. On the procedure: Figur 6: Diallyldisulfid und Dipropyldisulfid, nicht aber Diallylsulfid lösen selektiv in Tumorzellen interzelluläres Signaling und Apoptose aus. • A. 12 500 humane Magenkarzinomzellen MKN-45 oder 10 000 nichtmaligne, diploide humane Fibroblasten Alpha-1 wurden in Doppelansätzen in Serum-haltigen Medium mit den angegebenen Konzentrationen an Diallyldisulfid (DADS), Dipropyldisulfid (DPDS) oder Diallylsulfid (DAS) versetzt. Nach 3 Stunden bei 37 ° C, 5 % CO2 wurden die Prozentsätze apoptotischer Zellen bestimmt. […] Nach 3 Stunden bei 37 ° C, 5 % CO2 wurden die Prozentsätze apoptotischer Zellen bestimmt. Das Ergebnis zeigt, dass die durch DADS ausgelöste Apoptose von der Wirkung von Singulettsauerstoff, Superoxidanionen, Caspase-8, NO und HOCI abhängig ist.
Die Daten basieren allesamt auf der quantitativen Bestimmung der Apoptose mittels der klassischen morphologischen Kriterien Kernkondensation, Kernfragmentation und Membrane Blebbing nach definierten Inkubationszeiten bei 37°C. Parallel wurden diese Kriterien mithilfe der TUNEL-Reaktion gesichert, wodurch die für die Apoptose charakteristischen DNA-Strangbrüche nachgewiesen wurden, und die Abhängigkeit der Apoptoseinduktion von Caspase-3 und Caspase-9 überprüft, wodurch sichergestellt war, dass die Apoptose über den mitochondrialen Weg abläuft. […]

Series [3] deals with T2, protektive Katalase von Tumorzellen (Homo sapiens, UniProt P04040).
T2 construct: endogenous in cells; host or cells: MKN-45 (human gastric carcinoma cell line)
T2 sequence (P04040 2-527 limits assumed): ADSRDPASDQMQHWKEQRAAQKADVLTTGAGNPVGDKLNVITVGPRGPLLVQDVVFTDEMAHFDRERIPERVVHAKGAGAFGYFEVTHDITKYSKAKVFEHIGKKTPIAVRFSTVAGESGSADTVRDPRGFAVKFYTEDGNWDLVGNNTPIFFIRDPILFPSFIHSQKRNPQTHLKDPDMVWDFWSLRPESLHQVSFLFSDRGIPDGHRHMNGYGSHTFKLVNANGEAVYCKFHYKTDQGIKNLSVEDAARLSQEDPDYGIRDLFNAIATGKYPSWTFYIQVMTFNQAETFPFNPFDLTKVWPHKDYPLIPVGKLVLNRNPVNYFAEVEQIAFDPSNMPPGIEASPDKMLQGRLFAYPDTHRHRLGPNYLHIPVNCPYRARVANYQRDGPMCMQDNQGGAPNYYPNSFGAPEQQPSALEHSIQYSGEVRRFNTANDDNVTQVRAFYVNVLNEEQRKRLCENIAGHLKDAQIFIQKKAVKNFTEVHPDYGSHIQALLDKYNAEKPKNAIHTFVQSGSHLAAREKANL
In words: Inactivation of protective catalase: sensitisation of MKN-45 cells to peroxynitrite-induced apoptosis. Particulars: 150 µM DADS for 20 min or 50 mM 3-AT, apoptosis 100 min after PON. The format is cell-based. The method, then:
Figur 8: DADS führt zur Inaktivierung der protektiven Katalase von Tumorzellen • A. Humane MKN-45 Tumorzellen enthielten entweder zunächst keine Zusätze (Kontrolle), 50 mM des Katalasehemmers 3-AT oder wurden für 20 Minuten mit 150 µM DADS behandelt. Nach einem Waschschritt und der Verdünnung der Zellkonzentration auf 6000 Zellen / 100 µl Ansatz wurde Peroxynitrit (PON) in den angegebenen Konzentrationen zugegeben. Nach 100 Minuten erfolgte die Bestimmung der apoptotischen Zellen in Doppelansätzen. Wie die Kontrolle zeigt, sind die Tumorzellen vor der Apoptose-auslösenden Wirkung von Peroxynitrit geschützt.
Figur 8 A zeigt, dass die kurzzeitige Behandlung von Tumorzellen mit DADS den gleichen Effekt hat, wie die Zugabe des Katalasehemmstoffs 3-Aminotriazol (3-AT), nämlich die Zellen für die Apoptose-auslösende Wirkung von exogen zugegebenem Peroxynitrit (PON) zu aktivieren. Die Sensitivierung für die Wirkung von PON ermöglicht die selektive Testung der Inaktivierung der membranständigen Katalase von Tumorzellen (Heinzelmann and Bauer, 2010; Böhm et al., 2015). Im Gegensatz zu DADS führt DAS zu keiner Inaktivierung der Katalase (Figur 8 F). […]

The next series concerns NO Dioxygenase. In words: Test for inhibition of NO dioxygenase (enhanced effect of NO donor DEA NONOate on superoxide-producing cells). Type of series: cell-based.
Excerpt: Die Messung erfordert, dass durch geeignete Maßnahmen, wie bei Scheit und Bauer, 2015 beschrieben, die Tumorzellkatalase maximal inhibiert, die Hemmwirkung von H2O2 auf ·NO und Peroxynitrit durch Anwesenheit eines Katalasemimetikums verhindert und de novo Synthese von ·NO durch die Anwesenheit des NOS Inhibitors L-NAME verhindert wird.
as §1

With `NCCc1ccc(S(=O)(=O)F)cc1` [AEBSF, 4-(2-Aminoethyl)benzenesulfonyl fluoride], at NOX1 (5 µM), the “Hemmung von NOX1 / der extrazellulären Superoxidanionenproduktion” value was 20%. In addition, at NOX1 (100 µM), the “Hemmung von NOX1 / der Superoxidanionensynthese” value was > 95% and > 90%.

As for `C=CCSSCC=C` [DADS, Diallyldisulfid], the EC40 in series [1] (Homo sapiens, MKN-45, 3.5 h, read-out: Konzentration für den gleichen Effekt (ca. 40 Prozent des Maximalwertes der Apoptoseinduktion)) is 1.1 µM. Further, the “Konzentration, bei der der maximale Apoptose-auslösende Effekt erzielt wird” value in series [1] (alleinige Gabe) was 10 µM. Besides, in series [1], the “Apoptoseinduktion in Tumorzellen” value is recorded as “konzentrationsabhängig zur Apoptose”. Also, the “Apoptoseinduktion in normalen Zellen” value in series [2] is listed as “nicht aber bei den normalen Zellen”. For the same compound, the “Wirkung auf die protektive Katalase (sensitisation to peroxynitrite)” value in series [3] is on record as “gleichen Effekt wie der Katalasehemmstoff”. Also, the “Hemmung der NO Dioxygenase” value in the series on NO Dioxygenase is given as “Hemmung dieses Enzyms”.

As for `C=CCSCC=C` [DAS, Diallylsulfid], the “Apoptoseinduktion in Tumorzellen” value in series [1] is recorded as “keine Aktivität”. Also, the “Wirkung auf die protektive Katalase (sensitisation to peroxynitrite)” value in series [3] was “keine Wirkung auf die protektive Katalase”.

For `CCCSSCCC` [DPDS, Dipropyldisulfid], the “Apoptoseinduktion in Tumorzellen” value in series [1] is recorded as “konzentrationsabhängig zur Apoptose”. Also, the “Apoptoseinduktion in normalen Zellen” value in series [2] was “nicht aber bei den normalen Zellen”.

Take `C=CCSSCCCOc1cc(/C=C/c2ccc(O)cc2)cc(OCCCSSCC=C)c1` [Hybridmolekül]: the “Prozent des Maximalwertes der Apoptoseinduktion” value in series [1] (1 nM, MKN-45, 3,5 Stunden) is on record as “ca. 40 Prozent”. For the same compound, in series [1], the “Konzentration, bei der der maximale Apoptose-auslösende Effekt erzielt wird” value was 0.01 µM and the “Konzentration für optimale Wirkung” value fell in the range of 3 to 30 nM. Also, in series [1] (plus 0,9 µM Resveratrol, 0.3 µM DADS or 2,5 µM NOR-NOHA, MKN-45, 3,5 Stunden), the “Steigerung der Wirkung durch Zugabe von Einzelkomponenten” value is listed as “nicht steigern”. Moreover, the “wirksamer als Diallyldisulfid” value in series [1] (shift of concentration-effect curves, apoptosis in MKN-45) is given as ~1000 -fach.

On to `O=c1c(O)c(-c2ccc(O)c(O)c2)oc2cc(O)cc(O)c12` [Quercitin], for which the “Hemmung der NO Dioxygenase” value in the series on NO Dioxygenase is recorded as “Hemmung dieses Enzyms”.

`CC(=O)O[C@H]1C(=O)[C@@]2(C)[C@H]([C@H](OC(=O)c3ccccc3)[C@]3(O)C[C@H](OC(=O)[C@H](O)[C@@H](NC(=O)c4ccccc4)c4ccccc4)C(C)=C1C3(C)C)[C@]1(OC(C)=O)CO[C@@H]1C[C@@H]2O` [Taxol]: the “wirksamer in Bezug auf Induktion der Apoptose in Tumorzellen als Diallyldisulfid” value in series [1] (from Tabelle 2) is given as ≥ 10 -fach. For the same compound, the “Konzentration für optimale Wirkung” value in series [1] lay in the range of 900 to 3800 nM. The “Hemmung der NO Dioxygenase” value in the series on NO Dioxygenase was “Hemmung dieses Enzyms”.

On to Epothilon B, for which the “Hemmung der NO Dioxygenase” value in the series with NO Dioxygenase is recorded as “Hemmung dieses Enzyms”.
